US9181241B2, “Antagonists of chemokine receptors” (ChemoCentryx, Inc., priority 2012, dated 2015)

Molecular target: T1, CCR1 (Homo sapiens, UniProt P32246)
T1 construct: host or cells: THP-1 cells or isolated human CD14+ monocytes
T1 sequence (P32246 1-355): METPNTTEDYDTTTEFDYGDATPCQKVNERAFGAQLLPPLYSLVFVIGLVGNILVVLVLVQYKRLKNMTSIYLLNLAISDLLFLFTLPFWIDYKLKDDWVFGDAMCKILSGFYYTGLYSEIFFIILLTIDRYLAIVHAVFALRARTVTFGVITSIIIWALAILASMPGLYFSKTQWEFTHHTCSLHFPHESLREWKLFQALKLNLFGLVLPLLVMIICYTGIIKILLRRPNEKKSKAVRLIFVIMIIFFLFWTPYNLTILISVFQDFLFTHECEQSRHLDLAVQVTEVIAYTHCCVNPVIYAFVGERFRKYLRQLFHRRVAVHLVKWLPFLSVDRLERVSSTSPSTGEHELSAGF
Assay: Chemotaxis assay (CTX): inhibition of CCR1 mediated migration of THP-1 or monocyte cells
Assay type: cell-based
Details: class symbols; activity for either the chemotaxis assay or binding assay
Method: THP-1 cells were obtained from ATCC (TIB-202) and cultured as a suspension in RPMI-1640 medium supplemented with 2 mM L-glutamine, 1.5 g/L sodium bicarbonate, 4.5 g/L glucose, 10 mM HEPES, 1 mM sodium pyruvate, 0.05% 2-mercaptoethanol and 10% FBS. Cells were grown under 5% CO2/95% air, 100% humidity at 37° C. and subcultured twice weekly at 1:5 (cells were cultured at a density range of 2×10^5 to 2×10^6 cells/mL) and harvested at 1×10^6 cells/mL. THP-1 cells express CCR1 and can be used in CCR1 binding and functional assays.
Monocytes were isolated from human buffy coats using the Miltenyi bead isolation system (Miltenyi, Auburn, Calif.). Briefly, following a Ficoll gradient separation to isolate peripheral blood mononuclear cells, cells were washed with PBS and the red blood cells lysed using standard procedures. Remaining cells were labeled with anti-CD14 antibodies coupled to magnetic beads (Miltenyi Biotech, Auburn, Calif.). Labeled cells were passed through AutoMACS (Miltenyi, Auburn, Calif.) and positive fraction collected. Monocytes express CCR1 and can be used in CCR1 binding and functional assays.
Chemotaxis assays were performed using 5 μm pore polycarbonate, polyvinylpyrrolidone-coated filters in 96-well chemotaxis chambers (Neuroprobe; Gaithersburg, Md.) using chemotaxis buffer (Hank's balanced salt solution (HBSS) and 1% FBS). CCR1 chemokine ligands (i.e., MIP-1α, CCL15/Leukotactin; R&D Systems; Minneapolis, Minn.) are use to evaluate compound mediated inhibition of CCR1 mediated migration. Other chemokines (i.e., SDF-1α; R&D Systems; Minneapolis, Minn.) are used as specificity controls. The lower chamber was loaded with 29 μl of chemokine (i.e., 0.1 nM CCL15/Leukotactin) and varying amounts of compound; the top chamber contained 100,000 THP-1 or monocyte cells in 20 μl. The chambers were incubated 1-2 hours at 37° C., and the number of cells in the lower chamber quantified either by direct cell counts in five high powered fields per well or by the CyQuant assay (Molecular Probes), a fluorescent dye method that measures nucleic acid content, and by measuring with a Spectrafluor Plus (Tecan). The computer program Prism from GraphPad, Inc. (San Diego, Calif.) was used to calculate IC50 values. IC50 values are those compound concentrations required to inhibit the number of cells responding to a CCR1 agonist by 50%.

O=C(Cn1nc(C(F)(F)F)c2c1CCCC2)N1CCCc2c1cnn2-c1ccc(F)cc1
IC50: < 1 µM

Cc1c(Cl)c(C(F)(F)F)nn1CC(=O)N1CCCc2c1cnn2-c1ccc(Cl)cc1
IC50: < 1 µM

COc1cc(-n2ncc3c2CCCN3C(=O)Cn2nc(C(F)(F)F)c(Cl)c2C)ccc1Cl
IC50: < 1 µM

O=C(Cc1ccc(C(F)(F)F)cc1Cl)N1CCCc2c1cnn2-c1ccc(F)cc1
IC50: < 1 µM

Cc1nc(C(F)(F)F)nn1C(C)C(=O)N1CCCc2c1cnn2-c1ccc(F)cc1 (stereo not drawn)
IC50: < 1 µM

Cc1nn(CC(=O)N2CCCc3c2cnn3-c2ccc(F)cc2)c(-c2ncccn2)c1Cl
IC50: < 1 µM

Cc1c(Cl)c(C(C)(C)O)nn1CC(=O)N1CCCc2c1cnn2-c1ccc(F)cc1
IC50: < 1 µM

O=C(Cc1nccc(C(F)(F)F)n1)N1CCCc2c1cnn2-c1ccc(F)cc1
IC50: 2.5 to 12.5 µM

CCC(C(=O)N1CCCc2c1cnn2-c1ccc(F)cc1)n1cc(C(F)(F)F)nc1C (stereo not drawn)
IC50: < 1 µM

CCC(C(=O)N1CCCc2c1cnn2-c1ccc(F)cc1)n1nc(-c2ncccn2)c(Cl)c1C (stereo not drawn)
IC50: < 1 µM

Cc1nc(C(F)(F)F)cn1CC(=O)N1CCCc2c1cnn2-c1ccc(F)cc1
IC50: < 1 µM

CC[C@H](C(=O)N1CCCc2c1cnn2-c1ccc(F)cc1)n1nc(C(F)(F)F)c(Cl)c1C
IC50: < 1 µM

O=C(Cn1cnc(C(F)(F)F)c1)N1CCCc2c1cnn2-c1ccc(F)cc1
IC50: < 1 µM

COCC1CCc2c(cnn2-c2ccc(F)cc2)N1C(=O)Cn1nc(C(F)(F)F)c(Cl)c1C (stereo not drawn)
IC50: < 1 µM

Cc1cc(C(F)(F)F)nn1C(CC1CCOCC1)C(=O)N1CCCc2c1cnn2-c1ccc(F)cc1 (stereo not drawn)
IC50: < 1 µM

O=C(Cn1cccn1)N1CCCc2c1cnn2-c1ccc(F)cc1
IC50: > 12.5 µM

O=C(Cc1ccc(OC(F)(F)F)cc1)N1CCCc2c1cnn2-c1ccc(F)cc1
IC50: < 1 µM

Cc1nc(C(F)(F)F)nn1CC(=O)N1CCCc2c1cnn2-c1ccc(F)cc1
IC50: < 1 µM

Cc1nc(C(F)(F)F)cn1[C@@H](C)C(=O)N1CCCc2c1cnn2-c1ccc(F)cc1
IC50: < 1 µM

O=C(Cc1ccc(C(F)(F)F)c(Cl)c1)N1CCCc2c1cnn2-c1ccc(F)cc1
IC50: < 1 µM

Cc1cc(C(F)(F)F)nn1C(C)C(=O)N1CCCc2c1cnn2-c1ccc(F)cc1 (stereo not drawn)
IC50: < 1 µM

O=C(Cc1nc2ccccc2o1)N1CCCc2c1cnn2-c1ccc(F)cc1
IC50: < 1 µM

Cc1cc(C(F)(F)F)nn1C(CO)C(=O)N1CCCc2c1cnn2-c1ccc(F)cc1 (stereo not drawn)
IC50: < 1 µM

O=C(Cn1cnc(C(F)(F)F)n1)N1CCCc2c1cnn2-c1ccc(F)cc1
IC50: < 1 µM

Cc1c(Cl)c(C(F)(F)F)nn1CC(=O)N1CCCc2c1cnn2-c1ccc(F)cn1
IC50: < 1 µM

O=C(Cn1cnc2ncccc21)N1CCCc2c1cnn2-c1ccc(F)cc1
IC50: 2.5 to 12.5 µM

Cc1c(-c2ncon2)cnn1CC(=O)N1CCCc2c1cnn2-c1ccc(F)cc1
IC50: < 1 µM

N#Cc1cnn(CC(=O)N2CCCc3c2cnn3-c2ccc(F)cc2)c1
IC50: 2.5 to 12.5 µM

CC[C@@H](C(=O)N1CCCc2c1cnn2-c1ccc(F)cc1)n1nc(C(F)(F)F)c(Cl)c1C
IC50: < 1 µM

Cc1c(Cl)c(S(C)(=O)=O)nn1CC(=O)N1CCCc2c1cnn2-c1ccc(F)cc1
IC50: < 1 µM

Cc1nc(C(F)(F)F)cn1[C@@H](C)C(=O)N1CCCc2c1cnn2-c1ccc(Cl)cc1
IC50: < 1 µM

COC(=O)C1CCc2c(cnn2-c2ccc(F)cc2)N1C(=O)Cn1nc(C(F)(F)F)c(Cl)c1C (stereo not drawn)
IC50: < 1 µM

Cc1c(Cl)c(C(F)(F)F)nn1CC(=O)N1CCCc2c1cnn2-c1ccc(F)cc1F
IC50: < 1 µM

O=C(Cn1nc(C(F)(F)F)c2cccnc21)N1CCCc2c1cnn2-c1ccc(F)cc1
IC50: < 1 µM

Cc1c(Cl)c(C(F)(F)F)nn1CC(=O)N1CCCc2c1cnn2-c1ccc(F)cc1
IC50: < 1 µM

O=C(Cn1cc(Cl)c(C(F)(F)F)n1)N1CCCc2c1cnn2-c1ccc(F)cc1
IC50: < 1 µM

O=C(Cc1cccc(C(F)(F)F)c1)N1CCCc2c1cnn2-c1ccc(F)cc1
IC50: < 1 µM

CC(C)(O)c1cnn(CC(=O)N2CCCc3c2cnn3-c2ccc(F)cc2)c1
IC50: 2.5 to 12.5 µM

Cc1c(Cl)c(-c2ncc[nH]2)nn1CC(=O)N1CCCc2c1cnn2-c1ccc(F)cc1
IC50: < 1 µM
